Source: paper PMC9948168, “Vanillin-Based Indolin-2-one Derivative Bearing a Pyridyl Moiety as a Promising Anti-Breast Cancer Agent via Anti-Estrogenic Activity” (ACS Omega, 2023)

Experiments:
Experiment in all cases: NCI-60 one-dose screening
Type in all cases: cell-based
[1] = tested on: K-562; conditions: Homo sapiens, K562, K-562, Leukemias, read-out: GI (%)
Method: (§1) Compounds 5a–c and 6a–o were tested using standard NCI protocols for in vitro activity at the National Cancer Institute (NCI, Bethesda, Maryland, USA), wherein compounds were tested using one single concentration of 10 μM against 60 cell lines of nine different cancer types. […] Excellent activity was observed against a single NSCLC cell line, EKVX, for compounds 5a–c (GIs = 77–86%, Table 1) with no observed activity for indoles with substituted vanillin 6a–o.
(§2) Anticancer activity was tested against 60 cancer cell lines at the NCI, Bethesda, USA. The screening process was done with a single dosage of 10 μM according to NCI protocols published on the NCI website https://dtp.cancer.gov/discovery_development/nci-60/methodology.htm.

[2] = tested on: HOP-62; conditions: Homo sapiens, HOP-62, Non-Small Cell Lung Cancer, read-out: GI (%)
Method: as §1, §2

[3] = tested on: OVCAR-3; conditions: Homo sapiens, OVCAR-3, 10 μM; OVCAR-3, Ovarian Cancer; read-out: GI (%)
Method: as §1, §2

[4] = tested on: SW-620; conditions: Homo sapiens, SW-620, Colon Cancer, read-out: GI (%)
Method: as §1, §2

[5] = tested on: U251; conditions: Homo sapiens, U-251, U251, CNS Cancer, read-out: GI (%)
Method: as §1, §2

[6] = tested on: SK-MEL-2; conditions: Homo sapiens, SK-MEL-2, Melanoma, read-out: GI (%)
Method: as §1, §2

[7] = tested on: SF-295; conditions: Homo sapiens, SF-295, CNS Cancer, read-out: GI (%)
Method: as §1, §2

[8] = tested on: HL-60(TB); conditions: Homo sapiens, Leukemias, read-out: GI (%)
Method: as §1, §2

[9] = tested on: CCRF-CEM; conditions: Homo sapiens, Leukemias, read-out: GI (%)
Method: as §1, §2

[10] = tested on: SNB-19; conditions: Homo sapiens, SNB-19, CNS Cancer, read-out: GI (%)
Method: as §1, §2

[11] = tested on: OVCAR-8; conditions: Homo sapiens, OVCAR-8, Ovarian Cancer, read-out: GI (%)
Method: as §1, §2

[12] = tested on: KM12; conditions: Homo sapiens, KM12, Colon Cancer, read-out: GI (%)
Method: as §1, §2

[13] = tested on: SK-MEL-5; conditions: Homo sapiens, SK-MEL-5, Melanoma, read-out: GI (%)
Method: as §1, §2

[14] = tested on: MDA-MB-468; conditions: Homo sapiens, MDA-MB-468, Breast Cancer, read-out: GI (%)
Method: as §1, §2

[15] = tested on: MALME-3M; conditions: Homo sapiens, Melanoma, read-out: GI (%)
Method: as §1, §2

[16] = tested on: MCF7; conditions: Homo sapiens, MCF7, 10 μM; MCF7, Breast Cancer; read-out: GI (%)
Method: as §1, §2

[17] = tested on: NCI-H522; conditions: Homo sapiens, NCI-H522, Non-Small Cell Lung Cancer, read-out: GI (%)
Method: as §1, §2

[18] = tested on: NCI-H322M; conditions: Homo sapiens, Non-Small Cell Lung Cancer, read-out: GI (%)
Method: as §1, §2

[19] = tested on: TK-10; conditions: Homo sapiens, TK-10, Renal Cancer, read-out: GI (%)
Method: as §1, §2

[20] = tested on: UACC-257; conditions: Homo sapiens, UACC-257, Melanoma, read-out: GI (%)
Method: as §1, §2

[21] = tested on: SNB-75; conditions: Homo sapiens, SNB-75, CNS Cancer, read-out: GI (%)
Method: as §1, §2

[22] = tested on: HS 578T; conditions: Homo sapiens, Breast Cancer, read-out: GI (%)
Method: as §1, §2

[23] = tested on: SR; conditions: Homo sapiens, Leukemias, read-out: GI (%)
Method: as §1, §2

[24] = tested on: OVCAR-5; conditions: Homo sapiens, OVCAR-5, Ovarian Cancer, read-out: GI (%)
Method: as §1, §2

[25] = tested on: MDA-MB-231/ATCC; conditions: Homo sapiens, Breast Cancer, read-out: GI (%)
Method: as §1, §2

[26] = tested on: BT-549; conditions: Homo sapiens, BT-549, Breast Cancer, read-out: GI (%)
Method: as §1, §2

[27] = tested on: PC-3; conditions: Homo sapiens, PC-3, Prostate Cancer, read-out: GI (%)
Method: as §1, §2

[28] = tested on: HCC-2998; conditions: Homo sapiens, HCC-2998, Colon Cancer, read-out: GI (%)
Method: as §1, §2

[29] = tested on: NCI-H226; conditions: Homo sapiens, NCI-H226, Non-Small Cell Lung Cancer, read-out: GI (%)
Method: as §1, §2

[30] = tested on: COLO 205; conditions: Homo sapiens, COLO 205, Colon Cancer, read-out: GI (%)
Method: as §1, §2

[31] = tested on: NCI-H460; conditions: Homo sapiens, NCI-H460, Non-Small Cell Lung Cancer, read-out: GI (%)
Method: as §1, §2

[32] = tested on: HCT-116; conditions: Homo sapiens, HCT-116, Colon Cancer, read-out: GI (%)
Method: as §1, §2

[33] = tested on: A498; conditions: Homo sapiens, A498, Renal Cancer, read-out: GI (%)
Method: as §1, §2

[34] = tested on: EKVX; conditions: Homo sapiens, Non-Small Cell Lung Cancer, read-out: GI (%)
Method: as §1, §2

[35] = tested on: HOP-92; conditions: Homo sapiens, HOP-92, Non-Small Cell Lung Cancer, read-out: GI (%)
Method: as §1, §2

[36] = tested on: SN12C; conditions: Homo sapiens, Renal Cancer, read-out: GI (%)
Method: as §1, §2

Row | SMILES | inhibition at 10 µM [1] | inhibition at 10 µM [2] | inhibition at 10 µM [3] | inhibition at 10 µM [4] | inhibition at 10 µM [5] | inhibition at 10 µM [6] | inhibition at 10 µM [7] | inhibition at 10 µM [8] | inhibition at 10 µM [9] | inhibition at 10 µM [10] | inhibition at 10 µM [11] | inhibition at 10 µM [12] | inhibition at 10 µM [13] | inhibition at 10 µM [14] | inhibition at 10 µM [15] | inhibition at 10 µM [16] | inhibition at 10 µM [17] | inhibition at 10 µM [18] | inhibition at 10 µM [19] | inhibition at 10 µM [20] | also measured
1 | COc1cc(/C=C2/C(=O)Nc3ccccc32)ccc1OCc1ccc(F)cc1 [6c] | -3.95% | -0.35% | -16.7% | -5.55% | -6.26% | -7.35% | -1.97% | -15.2% | -2.41% | 0.68% | -1.99% | -0.58% | -2.32% | -2.14% | 0.21% | 12.2% | 8.05% | -3.28% | -29.6% | -18.2% | inhibition at 10 µM [21]: -5.65%; inhibition at 10 µM [22]: -15.2%; inhibition at 10 µM [23]: 9.9%; inhibition at 10 µM [24]: -6.64%; inhibition at 10 µM [25]: -0.03%; inhibition at 10 µM [26]: -15.7%; inhibition at 10 µM [27]: -0.92%; inhibition at 10 µM [28]: -18.9%; inhibition at 10 µM [29]: -0.42%; inhibition at 10 µM [30]: -11.2%; inhibition at 10 µM [31]: 13.6%; inhibition at 10 µM [32]: -6.72%; inhibition at 10 µM [33]: 10.8%; inhibition at 10 µM [34]: 2.35%; inhibition at 10 µM [35]: 0.18%; inhibition at 10 µM [36]: 0.05%
2 | COc1cc(C=C2C(=O)Nc3ccc(Cl)cc32)ccc1O (mixture of isomers) [5b] | 28.1% | 16.5% | 25.8% | -3.74% | 39.8% | 6.25% | 8.92% | 23.1% | 22.6% | 20.7% | 13.8% | 7.96% | 31.5% | 31.3% | 3.24% | 57.5% | 20.1% | 14.1% | -56.3% | 13.5% | inhibition at 10 µM [21]: 50.1%; inhibition at 10 µM [22]: 80.1%; inhibition at 10 µM [23]: 47.9%; inhibition at 10 µM [24]: 0.41%; inhibition at 10 µM [25]: 36.7%; inhibition at 10 µM [26]: 25%; inhibition at 10 µM [27]: 13.8%; inhibition at 10 µM [28]: -1.13%; inhibition at 10 µM [29]: 2.25%; inhibition at 10 µM [30]: -11.7%; inhibition at 10 µM [31]: 7.4%; inhibition at 10 µM [32]: 21.2%; inhibition at 10 µM [33]: 25.6%; inhibition at 10 µM [34]: 86.3%; inhibition at 10 µM [35]: 34.6%; inhibition at 10 µM [36]: 14.6%
3 | COc1cc(C=C2C(=O)Nc3ccccc32)ccc1OCc1ccccc1 (mixture of isomers) [6a] | 3.5% | -3.56% | 11% | 9.55% | -6.68% | -10.6% | -1.61% | -10.5% | 9.45% | 0.53% | -0.93% | -0.02% | -3.35% | 8.69% | 8.77% | 35.7% | 9.6% | 5.18% | -40.3% | -21.2% | inhibition at 10 µM [21]: -0.57%; inhibition at 10 µM [22]: -7.03%; inhibition at 10 µM [23]: 14.6%; inhibition at 10 µM [24]: -2.62%; inhibition at 10 µM [25]: 5.3%; inhibition at 10 µM [26]: 1.2%; inhibition at 10 µM [27]: 5.85%; inhibition at 10 µM [28]: -19.5%; inhibition at 10 µM [29]: -0.06%; inhibition at 10 µM [30]: -17.8%; inhibition at 10 µM [31]: 20.2%; inhibition at 10 µM [32]: 10.3%; inhibition at 10 µM [33]: -0.19%; inhibition at 10 µM [34]: 8.21%; inhibition at 10 µM [35]: 4.67%; inhibition at 10 µM [36]: 3.52%
